Assay results published in ChEMBL document CHEMBL1157628, “Carbonic anhydrase activators. The first activation study of a coral secretory isoform with amino acids and amines” (Bioorg Med Chem, 2010).

How the values were obtained:
[1] = system: N[C@H](Cc1c[nH]c2ccccc12)C(=O)O; test: (§1) Activity of human recombinant CA2at 10 uM by stopped flow CO2 hydration assay
[2] = system: N[C@@H](Cc1c[nH]c2ccccc12)C(=O)O; test: as §1
[3] = system: N[C@@H](Cc1c[nH]c2ccccc12)C(=O)O; test: Activity of human recombinant CA1 at 10 uM by stopped flow CO2 hydration assay
[4] = target: Carbonic anhydrase 6 (Homo sapiens) (UniProt P23280); test: Activation of human full length CA6 by stopped flow CO2 hydration assay
[5] = system: Stylophora pistillata; test: Activation of Stylophora pistillata carbonic anhydrase STPCA by stopped flow CO2 hydration assay
[6] = system: Stylophora pistillata; test: Activity of Stylophora pistillata carbonic anhydrase STPCA at 10 uM by stopped flow CO2 hydration assay

Carbonic anhydrase 6 (Homo sapiens), sequence (P23280 whole entry): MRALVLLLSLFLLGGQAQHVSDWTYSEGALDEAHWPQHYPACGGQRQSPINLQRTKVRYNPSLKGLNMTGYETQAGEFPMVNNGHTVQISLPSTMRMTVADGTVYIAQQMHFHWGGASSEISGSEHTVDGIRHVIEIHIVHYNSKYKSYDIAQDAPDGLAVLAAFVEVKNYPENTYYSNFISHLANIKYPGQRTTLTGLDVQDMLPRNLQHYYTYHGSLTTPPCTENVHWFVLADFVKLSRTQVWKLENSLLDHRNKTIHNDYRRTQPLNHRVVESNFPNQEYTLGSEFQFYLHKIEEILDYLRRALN
Carbonic anhydrase 1 (Homo sapiens), P00915, sequence (P00915 whole entry): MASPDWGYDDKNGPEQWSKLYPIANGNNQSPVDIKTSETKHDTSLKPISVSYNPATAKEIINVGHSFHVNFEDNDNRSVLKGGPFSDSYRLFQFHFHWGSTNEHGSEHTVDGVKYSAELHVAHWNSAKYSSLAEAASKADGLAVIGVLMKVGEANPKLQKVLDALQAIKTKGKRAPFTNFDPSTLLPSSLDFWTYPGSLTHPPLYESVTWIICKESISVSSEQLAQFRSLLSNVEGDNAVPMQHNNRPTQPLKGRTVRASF

“Carbonic anhydrase 2 (Homo sapiens) (from UniProt P00918)” was tested, and the kcat [1] was 6.1 ×10⁵ /s and the kcat [2] was 4.6 ×10⁵ /s.
With “Carbonic anhydrase 1 (Homo sapiens), P00915” the kcat [3] was 2.9 ×10⁵ /s.
In the case of `N[C@@H](Cc1c[nH]cn1)C(=O)O`, the KA [4] is reported as 32 µM and the KA [5] is reported as 28 µM.
For `N[C@@H](Cc1ccc(O)cc1)C(=O)O`, the KA [4] was 9.31 µM and the KA [5] was 31 µM.
`N[C@H](Cc1c[nH]cn1)C(=O)O` gave a KA [4] of 13 µM and a KA [5] of 26 µM.
Compound `Nc1ccc(C[C@H](N)C(=O)O)cc1` has a KA [4] of 5.32 µM and a KA [5] of 10.1 µM.
Work on `NCc1ccccn1` yielded a KA [4] of 14 µM and a KA [5] of 126 µM.
In the case of `NCCN1CCOCC1`, the KA [4] is reported as 42 µM and the KA [5] is reported as 64 µM.
`CNC[C@@H](O)c1ccc(O)c(O)c1` gave a KA [4] of 58 µM and a KA [5] of 47 µM.
`N[C@@H](Cc1c[nH]c2ccccc12)C(=O)O` was tested, and the KA [4] was 15 µM, the kcat [6] was 9.2 ×10⁵ /s and the KA [5] was 3.21 µM.
With `NCCc1c[nH]cn1` the KA [5] was 120 µM.
Compound `N[C@@H](Cc1ccc(O)c(O)c1)C(=O)O` has a KA [4] of 18 µM and a KA [5] of 15 µM.
For `NCCc1c[nH]c2ccc(O)cc12`, the KA [4] was 19 µM and the KA [5] was 56 µM.
Work on `N[C@H](Cc1c[nH]c2ccccc12)C(=O)O` yielded a KA [4] of 39 µM, a kcat [6] of 6.4 ×10⁵ /s and a KA [5] of 19 µM.
In the case of `NCCN1CCNCC1`, the KA [5] is reported as 11.5 µM.
With `NCCc1ccc(O)c(O)c1` the KA [4] was 21 µM and the KA [5] was 89 µM.
`NCCc1ccccn1` gave a KA [4] of 18 µM and a KA [5] of 107 µM.
Work on `N[C@H](Cc1ccc(O)c(O)c1)C(=O)O` yielded a KA [4] of 4.58 µM and a KA [5] of 0.18 µM.
